Measurements from patent US8614201B2 (Janssen Pharmaceutica NV, priority 2009, dated 2013).

Target: Human TRPA1 (Homo sapiens, UniProt O75762)
Experiment: Assay 1: In vitro cellular testing of TRPA1 modulation (CHO-TREx, Fluo-3 calcium fluorescence, AITC agonist)
Format: cell-based
Set-up: expressed in transfected cells; host or cells: CHO-TREx cells (Invitrogen), vector pcDNA4/TO
Settings: CHO-TREx cells expressing human TRPA1; Fluo-3 fluorescence (FLIPR/Tetra); agonist 15 μM allyl isothiocyanate (AITC); 30 minute antagonist incubation
Experimental: Assay 1: In Vitro Cellular Testing of TRPA1 Modulation
Human TRPA1 (NCBI accession number NM_007332.1) was cloned into pcDNA4/TO. CHO-TREx cells (Invitrogen, Carlsbad, Calif.) were stably transfected with pcDNA4/TO-TRPA1 using lipofection to generate a clonal cell line that expressed human TRPA1 in a tetracycline-inducible manner. Culture medium used was Ham's F-12 supplemented with 10% fetal bovine serum, 2 mM L-glutamine, 5 μg/ml blasticidin and 200 μg/ml zeocin. Cells were seeded in black-walled clear-bottom 96-well plates at a density of 50,000 cells per well and cultured overnight at 37° C. with 5% CO2 in culture medium supplemented with 1 μg/ml tetracycline. On the day of the experiment, cells were washed 3 times with HEPES buffered saline (in mM: NaCl 137, MgCl2 0.5, KCl 2, dextrose 5, CaCl2 2 and HEPES 10; pH 7.4). Cells were then loaded with calcium-sensitive fluorescent dye by incubation in the presence of 4 μM Fluo-3 AM (TefLabs, Austin, Tex.) at room temperature in the dark for 60 minutes. After incubation with dye, cells were washed in assay buffer and, if appropriate, antagonists were added at this time. Following a further 30 minute incubation, cells were assayed using a Fluorometric Imaging Plate Reader (FLIPR™) or a Tetra (both manufactured by Molecular Devices, CA) to simultaneously monitor Fluo-3 fluorescence in all wells (λexcitation=488 nm, λemission=540 nm). Changes in fluorescence were monitored for 3 minutes after the addition of 15 μM allyl isothiocyanate (AITC) as an agonist. Concentration-dependence of receptor blocking was determined by exposing each well of cells in duplicate rows of a 96-well plate to a serial dilution of test compound. The concentration series usually started at 10 μM with a three-fold serial decrement in concentration. The magnitude of the response to agonist challenge was determined by measuring the fluorescence before and 3 minutes after the addition of the agonist. The degree of blocking was determined by comparing the response to that of negative (no added antagonist) and positive (10 μM ruthenium red) control wells. Data were analyzed using a non-linear regression program (Origin; OriginLab, MA) to fit the concentration-response data to a Hill function. Antagonist potencies were determined as the concentration required to produce 50% reduction in the response as compared to the negative and positive controls.

Human TRPA1, sequence (O75762 whole entry): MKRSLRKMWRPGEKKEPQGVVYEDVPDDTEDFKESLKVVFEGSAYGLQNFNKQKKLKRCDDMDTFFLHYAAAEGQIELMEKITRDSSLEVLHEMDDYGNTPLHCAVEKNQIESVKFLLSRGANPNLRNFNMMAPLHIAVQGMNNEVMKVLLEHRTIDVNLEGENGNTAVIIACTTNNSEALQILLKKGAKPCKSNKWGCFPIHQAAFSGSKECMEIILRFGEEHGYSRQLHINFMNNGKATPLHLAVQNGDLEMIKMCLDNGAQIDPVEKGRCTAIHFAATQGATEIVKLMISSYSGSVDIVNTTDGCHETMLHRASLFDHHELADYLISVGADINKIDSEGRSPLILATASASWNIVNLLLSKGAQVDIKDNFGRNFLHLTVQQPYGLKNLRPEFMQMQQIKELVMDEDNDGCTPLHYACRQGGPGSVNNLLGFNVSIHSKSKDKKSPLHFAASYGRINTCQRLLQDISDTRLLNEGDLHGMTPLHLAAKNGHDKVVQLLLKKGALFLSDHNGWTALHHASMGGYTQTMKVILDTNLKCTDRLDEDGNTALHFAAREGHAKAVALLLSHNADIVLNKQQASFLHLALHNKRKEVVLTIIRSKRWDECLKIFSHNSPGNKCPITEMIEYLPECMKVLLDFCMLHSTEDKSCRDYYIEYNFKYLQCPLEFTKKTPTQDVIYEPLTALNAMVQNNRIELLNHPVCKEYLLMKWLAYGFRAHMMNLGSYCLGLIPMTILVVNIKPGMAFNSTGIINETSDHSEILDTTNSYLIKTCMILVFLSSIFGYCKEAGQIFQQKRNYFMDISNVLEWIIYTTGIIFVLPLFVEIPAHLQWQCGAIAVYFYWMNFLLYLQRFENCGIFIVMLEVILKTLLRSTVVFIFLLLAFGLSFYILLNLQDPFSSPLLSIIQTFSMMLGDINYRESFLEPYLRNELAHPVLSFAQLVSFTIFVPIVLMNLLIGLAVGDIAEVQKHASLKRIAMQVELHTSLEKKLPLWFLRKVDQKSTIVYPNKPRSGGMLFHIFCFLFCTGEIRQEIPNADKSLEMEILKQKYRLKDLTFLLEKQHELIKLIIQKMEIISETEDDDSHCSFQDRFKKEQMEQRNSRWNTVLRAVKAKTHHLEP

SMILES | IC50 [µM]
C[C@@H]1CCCN1c1nc(CNC(=O)[C@@H]2CCCN2S(=O)(=O)c2ccc(Cl)s2)cc(-c2ccc(C(F)(F)F)cc2)n1 [Example 30, 1-(5-Chloro-thiophene-2-sulfonyl)-pyrrolidine-2(S)-carboxylic acid [2-(2R-methyl-pyrrolidin-1-yl)-6-(4-trifluoromethyl-phenyl)-pyrimidin-4-ylmethyl]-amide] | 0.013
C[C@H]1CCCN1c1nc(CNC(=O)[C@@H]2CCCN2S(=O)(=O)c2ccc(Cl)s2)cc(-c2ccc(C(F)(F)F)cc2)n1 [Example 31, 1-(5-Chloro-thiophene-2-sulfonyl)-pyrrolidine-2S-carboxylic acid [2-(2S-methyl-pyrrolidin-1-yl)-6-(4-trifluoromethyl-phenyl)-pyrimidin-4-ylmethyl]-amide] | 0.009
CN(C)[C@@H]1CCN(c2nc(CNC(=O)[C@@H]3CCCN3S(=O)(=O)c3ccc(Cl)s3)cc(-c3ccc(C(F)(F)F)cc3)n2)C1 [Example 32, 1-(5-Chloro-thiophene-2-sulfonyl)-pyrrolidine-2S-carboxylic acid [2-(3R-dimethylamino-pyrrolidin-1-yl)-6-(4-trifluoromethyl-phenyl)-pyrimidin-4-ylmethyl]-amide] | 1.02
CN(C)[C@H]1CCN(c2nc(CNC(=O)[C@@H]3CCCN3S(=O)(=O)c3ccc(Cl)s3)cc(-c3ccc(C(F)(F)F)cc3)n2)C1 [Example 33, 1-(5-Chloro-thiophene-2-sulfonyl)-pyrrolidine-2S-carboxylic acid [2-(3S-dimethylamino-pyrrolidin-1-yl)-6-(4-trifluoromethyl-phenyl)-pyrimidin-4-ylmethyl]-amide] | 0.469
CC(C)(C)OC(=O)N[C@H]1CCN(c2nc(CNC(=O)[C@@H]3CCCN3S(=O)(=O)c3ccc(Cl)s3)cc(-c3ccc(C(F)(F)F)cc3)n2)C1 [Example 34, {1-[4-({[1-(5-Chloro-thiophene-2-sulfonyl)-pyrrolidine-2S-carbonyl]-amino}-methyl)-6-(4-trifluoromethyl-phenyl)-pyrimidin-2-yl]-pyrrolidin-3S-yl}-carbamic acid tert-butyl ester] | 0.032
CC(C)(C)OC(=O)N[C@@H]1CCN(c2nc(CNC(=O)[C@@H]3CCCN3S(=O)(=O)c3ccc(Cl)s3)cc(-c3ccc(C(F)(F)F)cc3)n2)C1 [Example 35, {1-[4-({[1-(5-Chloro-thiophene-2-sulfonyl)-pyrrolidine-2S-carbonyl]-amino}-methyl)-6-(4-trifluoromethyl-phenyl)-pyrimidin-2-yl]-pyrrolidin-3R-yl}-carbamic acid tert-butyl ester] | 0.083
C[C@H](Nc1nc(CNC(=O)[C@@H]2CCCN2S(=O)(=O)c2ccc(Cl)s2)cc(-c2ccc(C(F)(F)F)cc2)n1)c1ccccn1 [Example 36, 1-(5-Chloro-thiophene-2-sulfonyl)-pyrrolidine-2S-carboxylic acid [2-(1-pyridin-2-yl-ethylamino)-6-(4-trifluoromethyl-phenyl)-pyrimidin-4S-ylmethyl]-amide] | 0.039
C[C@@H](Nc1nc(CNC(=O)[C@@H]2CCCN2S(=O)(=O)c2ccc(Cl)s2)cc(-c2ccc(C(F)(F)F)cc2)n1)c1ccccn1 [Example 37, 1-(5-Chloro-thiophene-2-sulfonyl)-pyrrolidine-2S-carboxylic acid [2-(1-pyridin-2-yl-ethylamino)-6-(4-trifluoromethyl-phenyl)-pyrimidin-4R-ylmethyl]-amide] | 0.007
CN(C(=O)OC(C)(C)C)C1CCN(c2nc(CNC(=O)[C@@H]3CCCN3S(=O)(=O)c3ccc(Cl)s3)cc(-c3ccc(C(F)(F)F)cc3)n2)C1 (stereo partly drawn) [Example 38, {1-[4-({[1-(5-Chloro-thiophene-2-sulfonyl)-pyrrolidine-2S-carbonyl]-amino}-methyl)-6-(4-trifluoromethyl-phenyl)-pyrimidin-2-yl]-pyrrolidin-3-yl}-methyl-carbamic acid tert-butyl ester] | 0.006
N[C@H]1CCN(c2nc(CNC(=O)[C@@H]3CCCN3S(=O)(=O)c3ccc(Cl)s3)cc(-c3ccc(C(F)(F)F)cc3)n2)C1 [Example 39, 1-(5-Chloro-thiophene-2-sulfonyl)-pyrrolidine-2S-carboxylic acid [2-(3S-amino-pyrrolidin-1-yl)-6-(4-trifluoromethyl-phenyl)-pyrimidin-4-ylmethyl]-amide] | 1.26
N[C@@H]1CCN(c2nc(CNC(=O)[C@@H]3CCCN3S(=O)(=O)c3ccc(Cl)s3)cc(-c3ccc(C(F)(F)F)cc3)n2)C1 [Example 40, 1-(5-Chloro-thiophene-2-sulfonyl)-pyrrolidine-2S-carboxylic acid [2-(3R-amino-pyrrolidin-1-yl)-6-(4-trifluoromethyl-phenyl)-pyrimidin-4-ylmethyl]-amide] | 1.65
CNC1CCN(c2nc(CNC(=O)[C@@H]3CCCN3S(=O)(=O)c3ccc(Cl)s3)cc(-c3ccc(C(F)(F)F)cc3)n2)C1 (stereo partly drawn) [Example 41, 1-(5-Chloro-thiophene-2-sulfonyl)-pyrrolidine-2S-carboxylic acid [2-(3-methylamino-pyrrolidin-1-yl)-6-(4-trifluoromethyl-phenyl)-pyrimidin-4-ylmethyl]-amide] | 2.92
CC(C)COc1nc(CNC(=O)[C@@H]2CCCN2S(=O)(=O)c2ccc(F)cc2)cc(-c2ccc(C(F)(F)F)cc2)n1 [Example 42, 1-(4-Fluoro-benzenesulfonyl)-pyrrolidine-2-carboxylic acid [2-isobutoxy-6-(4-trifluoromethyl-phenyl)-pyrimidin-4-ylmethyl]-amide] | 0.016
CC(C)COc1nc(CNC(=O)[C@@H]2CCCN2S(=O)(=O)c2ccc(Cl)s2)cc(-c2ccc(C(F)(F)F)cc2)n1 [Example 43, 1-(5-Chloro-thiophene-2-sulfonyl)-pyrrolidine-2S-carboxylic acid [2-isobutoxy-6-(4-trifluoromethyl-phenyl)-pyrimidin-4-ylmethyl]-amide] | 0.004
CC(C)C1CCCN1c1nc(CNC(=O)[C@@H]2CCCN2S(=O)(=O)c2ccc(Cl)s2)cc(-c2ccc(C(F)(F)F)cc2)n1 (stereo partly drawn) [Example 44, 1-(5-Chloro-thiophene-2-sulfonyl)-pyrrolidine-2S-carboxylic acid [2-(2-isopropyl-pyrrolidin-1-yl)-6-(4-trifluoromethyl-phenyl)-pyrimidin-4-ylmethyl]-amide] | 0.012
CC(O)CNc1nc(CNC(=O)[C@@H]2CCCN2S(=O)(=O)c2ccc(Cl)s2)cc(-c2ccc(C(F)(F)F)cc2)n1 (stereo partly drawn) [Example 45, 1-(5-Chloro-thiophene-2-sulfonyl)-pyrrolidine-2S-carboxylic acid [2-(2-hydroxy-propylamino)-6-(4-trifluoromethyl-phenyl)-pyrimidin-4-ylmethyl]-amide] | 2.04
CC(C)(O)CNc1nc(CNC(=O)[C@@H]2CCCN2S(=O)(=O)c2ccc(Cl)s2)cc(-c2ccc(C(F)(F)F)cc2)n1 [Example 46, 1-(5-Chloro-thiophene-2-sulfonyl)-pyrrolidine-2S-carboxylic acid [2-(2-hydroxy-2-methyl-propylamino)-6-(4-trifluoromethyl-phenyl)-pyrimidin-4-ylmethyl]-amide] | 0.747
COc1nc(CNC(=O)[C@@H]2CCCN2S(=O)(=O)c2ccc(Cl)s2)cc(-c2ccc(C(F)(F)F)cc2)n1 [Example 47, 1-(5-Chloro-thiophene-2-sulfonyl)-pyrrolidine-2S-carboxylic acid [2-methoxy-6-(4-trifluoromethyl-phenyl)-pyrimidin-4-ylmethyl]-amide] | 0.014
CC1CCCN1c1nc(CNC(=O)[C@@H]2CCCN2S(=O)(=O)c2ccc(Cl)s2)cc(-c2ccc(C(F)(F)F)cc2)n1 (stereo partly drawn) [Example 48, 1-(5-Chloro-thiophene-2-sulfonyl)-pyrrolidine-2S-carboxylic acid [2-(2-methyl-pyrrolidin-1-yl)-6-(4-trifluoromethyl-phenyl)-pyrimidin-4-ylmethyl]-amide] | 0.006
CCOc1nc(CNC(=O)[C@@H]2CCCN2S(=O)(=O)c2ccc(Cl)s2)cc(-c2ccc(C(F)(F)F)cc2)n1 [Example 49, 1-(5-Chloro-thiophene-2-sulfonyl)-pyrrolidine-2S-carboxylic acid [2-ethoxy-6-(4-trifluoromethyl-phenyl)-pyrimidin-4-ylmethyl]-amide] | 0.015
O=C(NCc1cc(-c2ccc(C(F)(F)F)cc2)nc(N2CCN(Cc3ccccc3Cl)CC2)n1)[C@@H]1CCCN1S(=O)(=O)c1ccc(F)cc1 [Example 50, 1-(4-Fluoro-benzenesulfonyl)-pyrrolidine-2S-carboxylic acid [2-[4-(2-chloro-benzyl)-piperazin-1-yl]-6-(4-trifluoromethyl-phenyl)-pyrimidin-4-ylmethyl]-amide] | 0.036
